Assay results as given in patent US10836768B2, “N-acyl-(3-substituted)-(8-substituted)-5,6-dihydro-[1,2,4]triazolo[4,3-a]pyrazines as selective NK-3 receptor antagonists” (OGEDA SA, priority 2013, dated 2020).

Test: Determination of plasma protein binding (equilibrium dialysis)
Format: in vitro ADME
Settings: bound drug fraction to plasma protein; 4 hours at 37° C.
Text: Determination of Plasma Protein Binding
The pharmacokinetic and pharmacodynamic properties of chemicals/drugs are largely a function of the reversible binding of chemicals to plasma or serum proteins. […] Consequently, the extent of the plasma protein binding (PPB) of a compound influences its action as well as its distribution and elimination.
The determination of plasma protein binding (PPB) of a compound is enabled by equilibrium dialysis, an accepted and standard method for reliable estimation of the non-bound drug fraction in plasma. RED (Rapid Equilibrium Dialysis) device insert is made of two side-by-side chambers separated by an O-ring-sealed vertical cylinder of dialysis membrane (MWCO ˜8,000). […] After 4 hours incubation at 37° C. under shaking, an aliquot is removed from each chamber and analyzed by a LC-MS/MS procedure enables the determination of both free and bound drug.
The “free fraction” may be calculated as 100%−% rPPB (i.e. the complementary percentage of that disclosed in Table 4, corresponding to the drug concentration that is unbound and therefore available to engage biological target and elicit pharmacological activity).

In the case of `Cc1nsc(-c2nnc3n2CCN(C(=O)c2cccc(F)c2)[C@@H]3C)n1` [Compound 15, (R)-(3-fluorophenyl)(8-methyl-3-(3-methyl-1,2,4-thiadiazol-5-yl)-5,6-dihydro-[1,2,4]triazolo[4,3-a]pyrazin-7(8H)-yl)methanone], the “Exposure (% rPPB)” value is reported as 20%.

In the case of `Cc1nsc(-c2nnc3n2CCN(C(=O)c2ccc(F)c(F)c2F)C3C)n1` (racemic) [Compound 33, (8-methyl-3-(3-methyl-1,2,4-thiadiazol-5-yl)-5,6-dihydro-[1,2,4]triazolo[4,3-a]pyrazin-7(8H)-yl)(2,3,4-trifluorophenyl)methanone], the “Exposure (% rPPB)” value is reported as 29%.

For `C[C@@H]1c2nnc(-c3nc(C(C)(F)F)no3)n2CCN1C(=O)c1ccc(F)cc1` [Compound 43, (R)-(3-(3-(1,1-difluoroethyl)-1,2,4-oxadiazol-5-yl)-8-methyl-5,6-dihydro-[1,2,4]triazolo[4,3-a]pyrazin-7(8H)-yl)(4-fluorophenyl)methanone], the “Exposure (% rPPB)” value was 47%.

In the case of `CCC[C@@H]1c2nnc(-c3nc(C)ns3)n2CCN1C(=O)c1ccc(F)cc1` [Compound 24, (R)-(4-fluorophenyl)(3-(3-methyl-1,2,4-thiadiazol-5-yl)-8-propyl-5,6-dihydro-[1,2,4]triazolo[4,3-a]pyrazin-7(8H)-yl)methanone], the “Exposure (% rPPB)” value is reported as 48%.

In the case of `Cc1nsc(-c2nnc3n2CCN(C(=O)c2ccc(C(F)(F)F)cc2)[C@@H]3C)n1` [Compound 21, (R)-(8-methyl-3-(3-methyl-1,2,4-thiadiazol-5-yl)-5,6-dihydro-[1,2,4]triazolo[4,3-a]pyrazin-7(8H)-yl)(4-(trifluoromethyl)phenyl) methanone], the “Exposure (% rPPB)” value is reported as 38%.

In the case of `Cc1nsc(-c2nnc3n2CCN(C(=O)c2ccc(F)c(Cl)c2)C3C)n1` (racemic) [Compound 35, (3-chloro-4-fluorophenyl)(8-methyl-3-(3-methyl-1,2,4-thiadiazol-5-yl)-5,6-dihydro-[1,2,4]triazolo[4,3-a]pyrazin-7(8H)-yl)methanone], the “Exposure (% rPPB)” value is reported as 52%.

For `CC(F)c1noc(-c2nnc3n2CCN(C(=O)c2ccc(F)cc2)[C@@H]3C)n1` (stereo partly drawn) [Compound 45, ((8R)-3-(3-(1-fluoroethyl)-1,2,4-oxadiazol-5-yl)-8-methyl-5,6-dihydro-[1,2,4]triazolo[4,3-a]pyrazin-7(8H)-yl)(4-fluorophenyl)methanone], the “Exposure (% rPPB)” value was 31%.

In the case of `Cc1nsc(-c2nnc3n2CCN(C(=O)c2cc(F)c(F)c(F)c2F)[C@@H]3C)n1` [Compound 10, (R)-(8-methyl-3-(3-methyl-1,2,4-thiadiazol-5-yl)-5,6-dihydro-[1,2,4]triazolo[4,3-a]pyrazin-7(8H)-yl)(2,3,4,5-tetrafluorophenyl)methanone], the “Exposure (% rPPB)” value is reported as 30%.

With `Cc1noc(-c2nnc3n2CCN(C(=O)c2ccc(F)cc2)[C@@H]3C)n1` [Compound 28, (R)-(4-fluorophenyl)(8-methyl-3-(3-methyl-1,2,4-oxadiazol-5-yl)-5,6-dihydro-[1,2,4]triazolo[4,3-a]pyrazin-7(8H)-yl)methanone] the “Exposure (% rPPB)” value was 12%.

In the case of `Cc1nsc(-c2nnc3n2CCN(C(=O)c2cc(F)c(F)c(F)c2)C3C)n1` (racemic) [Compound 34, (8-methyl-3-(3-methyl-1,2,4-thiadiazol-5-yl)-5,6-dihydro-[1,2,4]triazolo[4,3-a]pyrazin-7(8H)-yl)(3,4,5-trifluorophenyl)methanone], the “Exposure (% rPPB)” value is reported as 24%.

For `Cc1nsc(-c2nnc3n2CCN(C(=O)c2ccc(F)c(Cl)c2)[C@@H]3C)n1` [Compound 6, (R)-(3-chloro-4-fluorophenyl)(8-methyl-3-(3-methyl-1,2,4-thiadiazol-5-yl)-5,6-dihydro-[1,2,4]triazolo[4,3-a]pyrazin-7(8H)-yl)methanone], the “Exposure (% rPPB)” value was 53%.

In the case of `Cc1nsc(-c2nnc3n2CCN(C(=O)c2cc(F)c(F)c(F)c2)[C@@H]3C)n1` [Compound 7, (R)-(8-methyl-3-(3-methyl-1,2,4-thiadiazol-5-yl)-5,6-dihydro-[1,2,4]triazolo[4,3-a]pyrazin-7(8H)-yl)(3,4,5-trifluorophenyl)methanone], the “Exposure (% rPPB)” value is reported as 26%.

With `C[C@H](F)c1noc(-c2nnc3n2CCN(C(=O)c2ccc(F)cc2)[C@@H]3C)n1` [Compound 45-1] the “Exposure (% rPPB)” value was 27%.

For `Cc1nsc(-c2nnc3n2CCN(C(=O)c2ccc(Cl)c(F)c2)C3C)n1` (racemic) [Compound 36, (4-chloro-3-fluorophenyl)(8-methyl-3-(3-methyl-1,2,4-thiadiazol-5-yl)-5,6-dihydro-[1,2,4]triazolo[4,3-a]pyrazin-7(8H)-yl)methanone], the “Exposure (% rPPB)” value was 60%.

For `CCc1nsc(-c2nnc3n2CCN(C(=O)c2ccc(F)cc2)C3C)n1` (racemic) [Compound 39, (3-(3-ethyl-1,2,4-thiadiazol-5-yl)-8-methyl-5,6-dihydro-[1,2,4]triazolo[4,3-a]pyrazin-7(8H)-yl)(4-fluorophenyl)methanone], the “Exposure (% rPPB)” value was 43%.

With `Cc1nsc(-c2nnc3n2CCN(C(=O)c2ccc(C#N)cc2)[C@@H]3C)n1` [Compound 29, (R)-4-(8-methyl-3-(3-methyl-1,2,4-thiadiazol-5-yl)-5,6,7,8-tetrahydro-[1,2,4]triazolo[4,3-a]pyrazine-7-carbonyl)benzonitrile] the “Exposure (% rPPB)” value was 10%.

In the case of `Cc1nsc(-c2nnc3n2CCN(C(=O)c2ccc(F)cc2)C3C)n1` (racemic) [Compound 14, (4-fluorophenyl)(8-methyl-3-(3-methyl-1,2,4-thiadiazol-5-yl)-5,6-dihydro-[1,2,4]triazolo[4,3-a]pyrazin-7(8H)-yl)methanone], the “Exposure (% rPPB)” value is reported as 21%.

For `Cc1nsc(-c2nnc3n2CCN(C(=O)c2ccc(F)c(F)c2)C3C)n1` (racemic) [Compound 32], the “Exposure (% rPPB)” value was 25%.

In the case of `Cc1nsc(-c2nnc3n2CCN(C(=O)c2ccc(Cl)c(Cl)c2)C3C)n1` (racemic) [Compound 38, (3,4-dichlorophenyl)(8-methyl-3-(3-methyl-1,2,4-thiadiazol-5-yl)-5,6-dihydro-[1,2,4]triazolo[4,3-a]pyrazin-7(8H)-yl)methanone], the “Exposure (% rPPB)” value is reported as 76%.

In the case of `Cc1nsc(-c2nnc3n2CCN(C(=O)c2ccccc2C)[C@@H]3C)n1` [Compound 26, (R)-(8-methyl-3-(3-methyl-1,2,4-thiadiazol-5-yl)-5,6-dihydro-[1,2,4]triazolo[4,3-a]pyrazin-7(8H)-yl)(o-tolyl)methanone], the “Exposure (% rPPB)” value is reported as 19%.

In the case of `Cc1nsc(-c2nnc3n2CCN(C(=O)c2cccc(Cl)c2)[C@@H]3C)n1` [Compound 16, (R)-(3-chlorophenyl)(8-methyl-3-(3-methyl-1,2,4-thiadiazol-5-yl)-5,6-dihydro-[1,2,4]triazolo[4,3-a]pyrazin-7(8H)-yl)methanone], the “Exposure (% rPPB)” value is reported as 36%.

In the case of `CCc1noc(-c2nnc3n2CCN(C(=O)c2ccc(F)cc2)C3C)n1` (racemic) [Compound 40, (3-(3-ethyl-1,2,4-oxadiazol-5-yl)-8-methyl-5,6-dihydro-[1,2,4]triazolo[4,3-a]pyrazin-7(8H)-yl)(4-fluorophenyl)methanone], the “Exposure (% rPPB)” value is reported as 24%.

With `Cc1nsc(-c2nnc3n2CCN(C(=O)c2cc(F)cc(F)c2)[C@@H]3C)n1` [Compound 17, (R)-(3,5-difluorophenyl)(8-methyl-3-(3-methyl-1,2,4-thiadiazol-5-yl)-5,6-dihydro-[1,2,4]triazolo[4,3-a]pyrazin-7(8H)-yl)methanone] the “Exposure (% rPPB)” value was 24%.

With `Cc1nsc(-c2nnc3n2CCN(C(=O)c2ccc(F)cc2F)[C@@H]3C)n1` [Compound 18, (R)-(2,4-difluorophenyl)(8-methyl-3-(3-methyl-1,2,4-thiadiazol-5-yl)-5,6-dihydro-[1,2,4]triazolo[4,3-a]pyrazin-7(8H)-yl)methanone] the “Exposure (% rPPB)” value was 23%.

With `CCC1c2nnc(-c3nc(C)ns3)n2CCN1C(=O)c1ccc(F)cc1` (racemic) [Compound 23, (8-ethyl-3-(3-methyl-1,2,4-thiadiazol-5-yl)-5,6-dihydro-[1,2,4]triazolo[4,3-a]pyrazin-7(8H)-yl)(4-fluorophenyl)methanone] the “Exposure (% rPPB)” value was 34%.

For `C[C@@H]1c2nnc(-c3nc(C(F)F)ns3)n2CCN1C(=O)c1ccc(F)cc1` [Compound 42, (R)-(3-(3-(difluoromethyl)-1,2,4-thiadiazol-5-yl)-8-methyl-5,6-dihydro-[1,2,4]triazolo[4,3-a]pyrazin-7(8H)-yl)(4-fluorophenyl)methanone], the “Exposure (% rPPB)” value was 16%.

With `COc1cccc(C(=O)N2CCn3c(-c4nc(C)ns4)nnc3[C@H]2C)c1` [Compound 27, (R)-(3-methoxyphenyl)(8-methyl-3-(3-methyl-1,2,4-thiadiazol-5-yl)-5,6-dihydro-[1,2,4]triazolo[4,3-a]pyrazin-7(8H)-yl)methanone] the “Exposure (% rPPB)” value was 24%.

For `C[C@@H]1c2nnc(-c3nc(CC(F)(F)F)no3)n2CCN1C(=O)c1ccc(F)cc1` [Compound 44, (R)-(4-fluorophenyl)(8-methyl-3-(3-(2,2,2-trifluoroethyl)-1,2,4-oxadiazol-5-yl)-5,6-dihydro-[1,2,4]triazolo[4,3-a]pyrazin-7(8H)-yl)methanone], the “Exposure (% rPPB)” value was 31%.

In the case of `Cc1nsc(-c2nnc3n2CCN(C(=O)c2cc(F)c(F)c(F)c2F)C3C)n1` (racemic) [Compound 31, (8-methyl-3-(3-methyl-1,2,4-thiadiazol-5-yl)-5,6-dihydro-[1,2,4]triazolo[4,3-a]pyrazin-7(8H)-yl)(2,3,4,5-tetrafluorophenyl)methanone], the “Exposure (% rPPB)” value is reported as 31%.

In the case of `C[C@H](F)c1noc(-c2nnc3n2CCN(C(=O)c2ccc(F)cc2)[C@@H]3C)n1` [Compound 45-2], the “Exposure (% rPPB)” value is reported as 33%.

In the case of `Cc1ccc(C(=O)N2CCn3c(-c4nc(C)ns4)nnc3[C@H]2C)cc1` [Compound 19, (R)-(8-methyl-3-(3-methyl-1,2,4-thiadiazol-5-yl)-5,6-dihydro-[1,2,4]triazolo[4,3-a]pyrazin-7(8H)-yl)(p-tolyl)methanone], the “Exposure (% rPPB)” value is reported as 51%.
